Measurements taken from ChEMBL document CHEMBL5247642, “Structural Optimization of Fibroblast Growth Factor Receptor Inhibitors for Treating Solid Tumors” (J Med Chem, 2023).
The source made the active and inactive calls. The calls are words filed in the database; no cut-off is given here.

Experiments:
[1] = AUC (0 to infinity) in CD-1 mouse at 3 mg/kg, po measured after 24 hrs by LC-MS/MS analysis; type: ADME, organism-based; set-up: time 24 hrs, dose 3 mg/kg, route po; details: in vivo
[2] = tested on: NCI-H226; assay: Antiproliferative activity against human NCI-H226 cells assessed as reduction in cell viability measured after 72 hrs; type: functional, cell-based; details: NCI-H226, 72 h
[3] = Toxicity in nude mouse xenografted with human SNU-16 cells assessed as body weight loss at 200 to 400 mg/kg, po administered once daily for 21 days; type: organism-based; details: in vivo, 504 h, dose 200-400 mg/kg, time 21 day
[4] = target: Fibroblast growth factor receptor 1 (Homo sapiens, UniProt P11362, V561M); assay: Inhibition of human recombinant FGFR1 V561M mutant (456 to 765 residues) using GGEEEEYFELVKK as substrate incubated for 40 mins presence of [gamma-33P]-ATP by radiometric based scintillation counter assay
[5] = tested on: NCI-H716; assay: Antitumor activity against human NCI-H716 cells xenografted in nude mouse assessed as tumor growth inhibition at 400 mg/kg, po administered once daily for 18 days by microcaliper analysis; type: functional, organism-based; details: time 18.0 day
[6] = Cmax in CD-1 mouse at 3 mg/kg, po measured after 24 hrs by LC-MS/MS analysis; type: ADME, organism-based; set-up: time 24 hrs, dose 3 mg/kg, route po; details: in vivo
[7] = GSH reactivity in PBS buffer assessed as percentage peak area ratio incubated for 24 hrs by LC-MS/MS analysis; type: physicochemical
[8] = tested on: PANC-1; assay: Antiproliferative activity against human PANC-1 cells assessed as reduction in cell viability measured after 72 hrs; type: functional, cell-based; details: PANC-1, 72 h
[9] = Tmax in CD-1 mouse at 3 mg/kg, po measured after 24 hrs by LC-MS/MS analysis; type: ADME, organism-based; details: in vivo
[10] = tested on: NCI-H2286; assay: Antiproliferative activity against human NCI-H2286 cells assessed as reduction in cell viability measured after 72 hrs; type: functional, cell-based; details: NCI-H2286, 72 h
[11] = tested on: NCI-H1581; assay: Antitumor activity against human NCI-H1581 cells xenografted in nude mouse assessed as tumor growth inhibition at 400 mg/kg, po administered once daily for 11 days by microcaliper analysis; type: functional, organism-based; details: time 11.0 day
[12] = tested on: A549; assay: Antiproliferative activity against human A549 cells assessed as reduction in cell viability measured after 72 hrs; type: functional, cell-based; details: A549, 72 h
[13] = Oral bioavailability in CD-1 mouse at 3 mg/kg measured after 24 hrs by LC-MS/MS analysis; type: ADME, organism-based; details: in vivo
[14] = tested on: NCI-H716; assay: Antiproliferative activity against human NCI-H716 cells expressing FGFR2 assessed as reduction in cell viability measured after 72 hrs; type: functional, cell-based; details: NCI-H716, 72 h
[15] = target: Vascular endothelial growth factor receptor 2 (Homo sapiens) (UniProt P35968); assay: Inhibition of VEGFR2 (unknown origin) at 1 uM using Poly (Glu,Tyr) 4:1 as substrate incubated for 60 mins in presence of ATP by ELISA analysis relative to control
Vascular endothelial growth factor receptor 2 (Homo sapiens), sequence (P35968 whole entry): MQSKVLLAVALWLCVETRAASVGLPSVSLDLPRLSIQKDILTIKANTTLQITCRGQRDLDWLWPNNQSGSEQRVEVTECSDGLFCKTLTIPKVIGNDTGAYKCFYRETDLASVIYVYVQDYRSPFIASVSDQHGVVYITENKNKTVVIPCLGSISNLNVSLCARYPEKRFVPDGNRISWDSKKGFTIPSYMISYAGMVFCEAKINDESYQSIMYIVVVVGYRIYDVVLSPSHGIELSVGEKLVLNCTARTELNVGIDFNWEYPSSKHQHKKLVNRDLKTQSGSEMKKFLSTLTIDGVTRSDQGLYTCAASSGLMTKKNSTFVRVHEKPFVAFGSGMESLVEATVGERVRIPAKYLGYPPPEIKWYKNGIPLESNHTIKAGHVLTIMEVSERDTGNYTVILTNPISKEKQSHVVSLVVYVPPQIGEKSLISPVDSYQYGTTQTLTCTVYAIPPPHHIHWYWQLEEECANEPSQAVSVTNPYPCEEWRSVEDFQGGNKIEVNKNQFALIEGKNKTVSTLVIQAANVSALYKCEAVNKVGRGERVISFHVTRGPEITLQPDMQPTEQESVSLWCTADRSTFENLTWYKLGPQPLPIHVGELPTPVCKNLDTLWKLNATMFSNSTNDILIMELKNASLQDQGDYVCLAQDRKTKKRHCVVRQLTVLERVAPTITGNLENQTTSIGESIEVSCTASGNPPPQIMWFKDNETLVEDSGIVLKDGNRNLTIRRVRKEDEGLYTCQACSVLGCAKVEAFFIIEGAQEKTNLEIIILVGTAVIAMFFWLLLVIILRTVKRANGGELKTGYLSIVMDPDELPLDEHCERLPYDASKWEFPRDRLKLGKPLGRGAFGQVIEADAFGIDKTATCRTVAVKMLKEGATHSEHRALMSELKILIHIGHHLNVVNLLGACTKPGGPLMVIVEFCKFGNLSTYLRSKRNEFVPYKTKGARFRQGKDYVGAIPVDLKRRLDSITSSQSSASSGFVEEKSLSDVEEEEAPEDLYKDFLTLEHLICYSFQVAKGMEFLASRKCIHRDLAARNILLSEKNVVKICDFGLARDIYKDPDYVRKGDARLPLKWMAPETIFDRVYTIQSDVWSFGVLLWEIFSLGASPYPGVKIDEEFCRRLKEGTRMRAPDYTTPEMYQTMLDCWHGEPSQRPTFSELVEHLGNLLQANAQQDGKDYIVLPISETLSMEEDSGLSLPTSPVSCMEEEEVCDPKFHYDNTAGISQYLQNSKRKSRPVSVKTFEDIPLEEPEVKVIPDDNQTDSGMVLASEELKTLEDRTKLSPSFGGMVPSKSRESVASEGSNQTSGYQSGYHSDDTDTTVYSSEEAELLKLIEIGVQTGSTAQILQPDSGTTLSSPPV

[16] = target: T1, Fibroblast growth factor receptor (Homo sapiens) (UniProt P22607+P11362+P22455+P21802); assay: Inhibition of FGFR phosphorylation in human SNU-16 cells at 5 nM measured after 12 hrs; type: cell-based
T1 sequence (P11362 whole entry, looked up): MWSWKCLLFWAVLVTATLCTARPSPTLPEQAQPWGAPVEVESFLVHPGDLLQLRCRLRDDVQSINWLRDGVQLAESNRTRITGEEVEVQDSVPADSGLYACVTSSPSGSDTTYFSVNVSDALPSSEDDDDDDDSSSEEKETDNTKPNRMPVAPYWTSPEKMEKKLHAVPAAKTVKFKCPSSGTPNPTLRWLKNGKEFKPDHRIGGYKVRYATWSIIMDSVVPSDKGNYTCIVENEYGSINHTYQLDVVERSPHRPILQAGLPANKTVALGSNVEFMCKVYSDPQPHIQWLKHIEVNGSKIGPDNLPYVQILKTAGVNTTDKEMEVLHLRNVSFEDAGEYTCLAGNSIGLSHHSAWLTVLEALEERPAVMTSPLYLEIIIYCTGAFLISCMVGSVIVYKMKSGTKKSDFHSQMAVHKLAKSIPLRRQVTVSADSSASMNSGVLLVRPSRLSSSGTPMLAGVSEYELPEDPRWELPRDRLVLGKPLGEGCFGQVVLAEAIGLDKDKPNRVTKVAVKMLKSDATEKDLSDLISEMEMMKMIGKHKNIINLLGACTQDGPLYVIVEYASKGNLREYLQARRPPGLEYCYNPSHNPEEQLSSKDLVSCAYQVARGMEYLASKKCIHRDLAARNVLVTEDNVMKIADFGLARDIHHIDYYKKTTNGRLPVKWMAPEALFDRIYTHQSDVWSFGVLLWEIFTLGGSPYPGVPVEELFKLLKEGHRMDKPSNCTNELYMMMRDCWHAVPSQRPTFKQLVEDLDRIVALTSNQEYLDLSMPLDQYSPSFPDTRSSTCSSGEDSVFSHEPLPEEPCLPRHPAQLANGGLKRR
T1 sequence (P21802 whole entry, looked up): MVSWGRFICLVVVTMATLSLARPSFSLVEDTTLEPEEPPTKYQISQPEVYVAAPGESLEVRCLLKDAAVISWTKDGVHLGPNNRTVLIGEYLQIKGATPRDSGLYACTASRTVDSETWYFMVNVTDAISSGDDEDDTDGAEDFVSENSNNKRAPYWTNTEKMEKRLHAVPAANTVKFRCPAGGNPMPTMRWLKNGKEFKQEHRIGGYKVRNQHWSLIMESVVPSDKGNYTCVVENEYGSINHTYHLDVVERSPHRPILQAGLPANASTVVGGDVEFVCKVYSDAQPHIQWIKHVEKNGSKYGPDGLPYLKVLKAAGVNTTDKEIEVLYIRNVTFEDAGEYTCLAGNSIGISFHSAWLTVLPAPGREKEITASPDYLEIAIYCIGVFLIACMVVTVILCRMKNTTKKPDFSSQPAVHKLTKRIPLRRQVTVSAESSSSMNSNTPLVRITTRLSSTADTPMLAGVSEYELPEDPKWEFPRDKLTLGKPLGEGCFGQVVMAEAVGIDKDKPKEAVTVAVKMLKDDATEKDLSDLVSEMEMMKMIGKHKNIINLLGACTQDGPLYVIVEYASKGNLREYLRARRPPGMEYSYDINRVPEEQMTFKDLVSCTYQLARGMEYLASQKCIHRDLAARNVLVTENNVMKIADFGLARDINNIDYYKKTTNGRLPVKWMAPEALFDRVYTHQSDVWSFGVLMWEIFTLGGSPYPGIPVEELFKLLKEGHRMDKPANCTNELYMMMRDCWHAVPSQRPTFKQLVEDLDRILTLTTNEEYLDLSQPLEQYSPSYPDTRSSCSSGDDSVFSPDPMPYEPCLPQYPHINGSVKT
T1 sequence (P22455 whole entry, looked up): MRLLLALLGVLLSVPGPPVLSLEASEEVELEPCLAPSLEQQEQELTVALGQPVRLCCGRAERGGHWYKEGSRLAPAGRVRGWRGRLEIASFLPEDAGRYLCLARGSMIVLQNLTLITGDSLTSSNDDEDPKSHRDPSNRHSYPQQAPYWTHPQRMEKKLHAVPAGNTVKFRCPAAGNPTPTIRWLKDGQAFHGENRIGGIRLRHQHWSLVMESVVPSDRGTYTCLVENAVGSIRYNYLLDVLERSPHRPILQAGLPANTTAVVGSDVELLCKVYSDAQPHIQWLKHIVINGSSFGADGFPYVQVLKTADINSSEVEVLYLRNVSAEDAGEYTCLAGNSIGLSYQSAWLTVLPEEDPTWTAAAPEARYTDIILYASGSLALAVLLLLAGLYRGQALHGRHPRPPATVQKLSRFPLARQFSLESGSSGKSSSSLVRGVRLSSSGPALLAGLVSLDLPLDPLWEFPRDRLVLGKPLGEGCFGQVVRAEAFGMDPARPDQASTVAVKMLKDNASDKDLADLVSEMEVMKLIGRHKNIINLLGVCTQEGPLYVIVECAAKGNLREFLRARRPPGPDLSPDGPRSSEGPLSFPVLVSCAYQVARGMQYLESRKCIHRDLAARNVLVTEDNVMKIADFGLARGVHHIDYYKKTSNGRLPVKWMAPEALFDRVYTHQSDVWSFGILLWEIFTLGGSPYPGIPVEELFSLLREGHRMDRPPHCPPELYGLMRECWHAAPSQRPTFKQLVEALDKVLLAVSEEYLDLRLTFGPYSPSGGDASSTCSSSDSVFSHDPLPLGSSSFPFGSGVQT
T1 sequence (P22607 whole entry, looked up): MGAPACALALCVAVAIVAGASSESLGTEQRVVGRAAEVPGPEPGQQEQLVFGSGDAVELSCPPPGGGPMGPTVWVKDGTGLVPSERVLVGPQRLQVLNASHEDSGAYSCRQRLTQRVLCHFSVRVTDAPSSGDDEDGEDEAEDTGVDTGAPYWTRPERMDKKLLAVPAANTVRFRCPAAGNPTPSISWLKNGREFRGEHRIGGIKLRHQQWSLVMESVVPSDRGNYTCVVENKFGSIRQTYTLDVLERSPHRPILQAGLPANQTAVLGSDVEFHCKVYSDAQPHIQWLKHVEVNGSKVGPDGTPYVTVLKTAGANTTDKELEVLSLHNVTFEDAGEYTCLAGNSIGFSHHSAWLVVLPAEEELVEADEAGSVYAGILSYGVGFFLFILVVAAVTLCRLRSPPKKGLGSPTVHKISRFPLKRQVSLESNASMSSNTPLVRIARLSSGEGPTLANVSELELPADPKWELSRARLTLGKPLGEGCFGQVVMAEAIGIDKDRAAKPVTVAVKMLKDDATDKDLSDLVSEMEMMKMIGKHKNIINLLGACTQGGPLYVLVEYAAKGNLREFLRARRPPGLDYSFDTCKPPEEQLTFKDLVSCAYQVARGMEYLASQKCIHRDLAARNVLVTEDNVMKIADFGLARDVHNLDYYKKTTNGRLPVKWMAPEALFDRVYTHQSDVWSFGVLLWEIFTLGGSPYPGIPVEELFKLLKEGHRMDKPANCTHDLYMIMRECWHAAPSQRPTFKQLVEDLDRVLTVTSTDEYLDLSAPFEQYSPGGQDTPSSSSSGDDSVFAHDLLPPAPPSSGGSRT

[17] = tested on: EBC-1; assay: Antiproliferative activity against human EBC-1 cells assessed as reduction in cell viability measured after 72 hrs; type: functional, cell-based; details: EBC-1, 72 h
[18] = target: T1, Fibroblast growth factor receptor (Homo sapiens); assay: Inhibition of FGFR signalling in human SNU-16 assessed as inhibition of pErk phosphorylation at 0.1 nM incubated for 2 hrs by Western blot analysis; type: cell-based
[19] = tested on: OPM-2; assay: Antiproliferative activity against human OPM-2 cells expressing FGFR3 assessed as reduction in cell viability measured after 72 hrs; type: functional, cell-based; details: OPM-2, 72 h
[20] = AUC (0 to t) in CD-1 mouse at 1 mg/kg, iv measured after 24 hrs by LC-MS/MS analysis; type: ADME, organism-based; set-up: time 24 hrs, dose 1 mg/kg, route iv; details: in vivo
[21] = tested on: NCI-H727; assay: Antiproliferative activity against human NCI-H727 cells assessed as reduction in cell viability measured after 72 hrs; type: functional, cell-based; details: NCI-H727, 72 h
[22] = tested on: NCI-H1581; assay: Antitumor activity against human NCI-H1581 cells xenografted in po dosed nude mouse assessed as tumor growth inhibition administered once daily for 11 days by microcaliper analysis; type: functional, organism-based; details: dose 200-400 mg/kg, time 11.0 day
[23] = tested on: SNU-16; assay: Antiproliferative activity against human SNU-16 cells assessed as reduction in cell viability measured for 72 hrs; type: functional, cell-based; details: SNU-16, 72 h
[24] = tested on: NCI-H1792; assay: Antiproliferative activity against human NCI-H1792 cells assessed as reduction in cell viability measured after 72 hrs; type: functional, cell-based; details: NCI-H1792, 72 h
[25] = target: Fibroblast growth factor receptor 4 (Homo sapiens, UniProt P22455); assay: Inhibition of FGFR4 (unknown origin) using Poly (Glu,Tyr) 4:1 as substrate incubated for 60 mins in presence of ATP by ELISA analysis
Fibroblast growth factor receptor 4, sequence (P22455 whole entry): as the sequence (P22455 whole entry, looked up) above

[26] = tested on: SNU-16; assay: Antitumor activity against human SNU-16 cells xenografted in nude mouse assessed as tumor growth inhibition at 200 mg/kg, po administered once daily for 21 days by microcaliper analysis relative to control; type: functional; set-up: scale not given: the % may be the effect or the level left; details: time 21 day
[27] = target: Fibroblast growth factor receptor 3 (Homo sapiens, UniProt P22607, V555M); assay: Inhibition of FGFR3 V555M mutant (unknown origin)
[28] = tested on: PC-9; assay: Antiproliferative activity against human PC-9 cells assessed as reduction in cell viability measured after 72 hrs; type: functional, cell-based; details: PC-9, 72 h

AUC(0-inf) [1]: 75.4 ng·h/mL
IC50 [2]: > 10000 nM
IC50 [4]: > 5000 nM
Cmax [6]: 174 ng/mL
Activity [7]: 65%
IC50 [8]: > 10000 nM
Tmax [9]: 15 min
IC50 [10]: > 10000 nM
IC50 [12]: > 10000 nM
bioavailability [13]: 20.4%
IC50 [14]: 3.2 nM
inhibition [15]: < 50%
inhibition [16]: Active
inhibition [18]: Active
AUC(0-t) at 24 h [20]: 115 ng·h/mL
IC50 [21]: > 10000 nM
IC50 [23]: 1.2 nM
IC50 [24]: > 10000 nM
IC50 [25]: 155 nM
IC50 [27]: 2000 nM
IC50 [28]: > 10000 nM
SMILES: C=CC(=O)N1CCCC(n2nc3c(=O)[nH]nc(N)c3c2-c2oc3ccc(C)cc3c2C)C1 (stereo not drawn)
Activity [3]: Non-Toxic
Activity [5]: Active
Activity [11]: Active
IC50 [17]: > 10000 nM
IC50 [19]: 300 nM
Activity [22]: Dose-Dependent Effect
Activity [26]: 68.4%
